{"source": "patent US12371454B2", "about": "“Cyclic peptide compound having Kras inhibitory action” (priority 2019, dated 2025)", "note": "Starred links: 1 amine or outer side, 2 acyl side, 3 side chain; linkers in the order of their positions; H or OH if unused. Positions of bridges follow the written chain, without caps; N, C: chain ends. Non-standard residues stand in square brackets, D forms with d. Residues, ends and D or L forms follow the SMILES beside them. *: point of attachment. hPhe(3-Cl-4-CF3) = N[C@@H](CCc1ccc(C(F)(F)F)c(Cl)c1)C(=O)O; NMePhe(4-CF3) = CN[C@@H](Cc1ccc(C(F)(F)F)cc1)C(=O)O; X39 = COc1ccc(C[C@@H](C(=O)[*:2])N(C)[*:1])cn1; NMePhe(4-Cl) = CN[C@@H](Cc1ccc(Cl)cc1)C(=O)O; NMePhe(4-Me) = CN[C@@H](Cc1ccc(C)cc1)C(=O)O; NMedβ3hAla = C[C@H](CC(=O)[*:2])N(C)[*:1]; Phe(3-Cl) = N[C@@H](Cc1cccc(Cl)c1)C(=O)O; NMeGly(cPent) = CN[C@H](C(=O)O)C1CCCC1; Phe(3-I) = N[C@@H](Cc1cccc(I)c1)C(=O)O; Phe(3-Me) = Cc1cccc(C[C@H](N)C(=O)O)c1; Pro(4,4-F2) = O=C(O)[C@@H]1CC(F)(F)CN1; NMeCha = CN[C@@H](CC1CCCCC1)C(=O)O; NMeChg = CN[C@H](C(=O)O)C1CCCCC1; NMeF = CN[C@@H](Cc1ccccc1)C(=O)O; hPhe = N[C@@H](CCc1ccccc1)C(=O)O; NMeD = CN[C@@H](CC(=O)O)C(=O)O; NMeL = CN[C@@H](CC(C)C)C(=O)O; NMeV = CN[C@H](C(=O)O)C(C)C; d(β3hA) = C[C@@H](N)CC(=O)O; NMeS = CN[C@@H](CO)C(=O)O; NMeA = CN[C@@H](C)C(=O)O; NMeAib = CNC(C)(C)C(=O)O; Piperidide = C1CCN(*)CC1; Pyrrolidide = C1CCN(*)C1; dNMeA = CN[C@H](C)C(=O)O; Ac5c = NC1(C(=O)O)CCCC1; Aze = O=C(O)[C@@H]1CCN1; CH2CMe2OH = CC(C)(O)C*; βAla = NCCC(=O)O; Sar = CNCC(=O)O", "data": [{"target": "T1, Kras and SOS1 (biotin-tagged human Kras loaded with GDP, His-tagged human SOS1) (Homo sapiens, UniProt P01116, G12D)", "T1 construct": "made in house; host or cells: E. coli (stated for Kras only)", "T1 sequence (P01116 1-188 isoform P01116-2 G12D)": "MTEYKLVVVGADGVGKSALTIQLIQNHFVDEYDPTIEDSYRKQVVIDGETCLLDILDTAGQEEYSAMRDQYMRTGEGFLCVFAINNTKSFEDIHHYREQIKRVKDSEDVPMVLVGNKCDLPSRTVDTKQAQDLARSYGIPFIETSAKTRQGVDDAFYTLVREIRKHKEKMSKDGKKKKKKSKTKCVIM", "assay": "Protein-protein interaction inhibition between Kras and SOS1 (KrasGl2D-SOS PPI) using AlphaScreen", "format": "binding", "conditions": "AlphaScreen; biotin-tagged human Kras loaded with GDP, His-tagged human SOS1; read-out: KRAS G12D-SOS PPI IC50", "method_in_brief": "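Donor beads (nickel) hold His-SOS1; acceptor beads (streptavidin) hold biotin-Kras bound to GDP. Signal measured at 520-620 nm following 680 nm excitation.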", "units": {"IC50": "µM"}, "values": [{"smiles": "CC[C@H](C)[C@@H]1NC(=O)CCNC(=O)[C@H](COCC(C)(C)O)N(C)C(=O)[C@H](C2CCCCC2)N(C)C(=O)C2(CCCC2)NC(=O)[C@@H]2CCCN2C(=O)[C@H](CCc2ccc(C(F)(F)F)c(Cl)c2)NC(=O)CN(C)C(=O)[C@H](CC2CCCCC2)N(C)C(=O)CN(C)C(=O)CN(C)C1=O", "note": "[Compound 605] (cyclo([Ac5c][NMeChg][NMeS](CH2CMe2OH)[βAla]I[Sar][Sar][NMeCha][Sar][hPhe(3-Cl-4-CF3)]P))", "IC50": 0.009}, {"smiles": "CC[C@H](C)[C@@H]1NC(=O)[C@H](C)N(C)C(=O)C[C@@H](C(=O)N2CCCC2)NC(=O)[C@H](C(C)C)N(C)C(=O)[C@H](Cc2ccccc2)N(C)C(=O)[C@H](Cc2cccc(C)c2)NC(=O)[C@H](Cc2cccc(Cl)c2)NC(=O)CN(C)C(=O)[C@H](Cc2ccc(Cl)cc2)N(C)C(=O)CN(C)C(=O)CN(C)C1=O", "note": "[Compound 609] ([NMeA]I[Sar][Sar][NMePhe(4-Cl)][Sar][Phe(3-Cl)][Phe(3-Me)][NMeF][NMeV]D-Pyrrolidide; lactam N-11)", "IC50": 0.11}, {"smiles": "CC[C@H](C)[C@@H]1NC(=O)[C@H](CC(C)C)N(C)C(=O)C[C@@H](C)N(C)C(=O)[C@H](C2CCCC2)N(C)C(=O)C2(CCCC2)NC(=O)[C@@H]2CC(F)(F)CN2C(=O)[C@H](CCc2ccc(C(F)(F)F)c(Cl)c2)NC(=O)CN(C)C(=O)[C@H](Cc2ccc(C(F)(F)F)cc2)N(C)C(=O)CN(C)C(=O)CN(C)C1=O", "note": "[Compound 611] (cyclo([Ac5c][NMeGly(cPent)][NMedβ3hAla][NMeL]I[Sar][Sar][NMePhe(4-CF3)][Sar][hPhe(3-Cl-4-CF3)][Pro(4,4-F2)]))", "IC50": 0.0033}, {"smiles": "CC[C@H](C)[C@@H]1NC(=O)[C@H](C)N(C)C(=O)C[C@@H](C(=O)N2CCCC2)NC(=O)[C@H](C(C)C)N(C)C(=O)[C@H](Cc2ccccc2)N(C)C(=O)[C@H](C)NC(=O)[C@H](Cc2cccc(Cl)c2)NC(=O)CN(C)C(=O)[C@H](Cc2ccc(Cl)cc2)N(C)C(=O)CN(C)C(=O)CN(C)C1=O", "note": "[Compound 612] ([NMeA]I[Sar][Sar][NMePhe(4-Cl)][Sar][Phe(3-Cl)]A[NMeF][NMeV]D-Pyrrolidide; lactam N-11)", "IC50": 0.12}, {"smiles": "CC[C@H](C)[C@@H]1NC(=O)[C@H](C)N(C)C(=O)C[C@@H](C(=O)N2CCCC2)NC(=O)[C@H](CC(C)C)N(C)C(=O)[C@H](Cc2ccccc2)N(C)C(=O)[C@H](CC(C)C)NC(=O)[C@H](Cc2ccccc2)NC(=O)CN(C)C(=O)[C@H](Cc2ccc(Cl)cc2)N(C)C(=O)CN(C)C(=O)CN(C)C1=O", "note": "[Compound 613] ([NMeA]I[Sar][Sar][NMePhe(4-Cl)][Sar]FL[NMeF][NMeL]D-Pyrrolidide; lactam N-11)", "IC50": 0.5}, {"smiles": "CC[C@H](C)[C@@H]1NC(=O)[C@H](CC(C)C)N(C)C(=O)C[C@@H](C(=O)N2CCCCC2)N(C)C(=O)[C@H](C2CCCCC2)N(C)C(=O)C2(CCCC2)NC(=O)[C@H](Cc2ccc(OC)nc2)N(C)C(=O)[C@H](CCc2ccc(C(F)(F)F)c(Cl)c2)NC(=O)CN(C)C(=O)[C@H](CC2CCCCC2)N(C)C(=O)[C@@H]2CCN2C(=O)CN(C)C1=O", "note": "[Compound 614] ([NMeL]I[Sar][Aze][NMeCha][Sar][hPhe(3-Cl-4-CF3)][X39][Ac5c][NMeChg][NMeD]-Piperidide; lactam N-11)", "IC50": 0.024}, {"smiles": "CC[C@H](C)[C@@H]1NC(=O)[C@H](CC(C)C)N(C)C(=O)C[C@@H](C(=O)N2CCCCC2)N(C)C(=O)[C@H](CC(C)C)NC(=O)C(C)(C)N(C)C(=O)[C@H](CCc2ccccc2)NC(=O)[C@H](Cc2cccc(I)c2)NC(=O)CN(C)C(=O)[C@H](Cc2ccc(C)cc2)N(C)C(=O)[C@@H]2CCN2C(=O)[C@H](C)N(C)C1=O", "note": "[Compound 617] ([NMeL]I[NMeA][Aze][NMePhe(4-Me)][Sar][Phe(3-I)][hPhe][NMeAib]L[NMeD]-Piperidide; lactam N-11)", "IC50": 0.11}, {"smiles": "CC[C@H](C)[C@@H]1NC(=O)[C@H](CC(C)C)N(C)C(=O)C[C@@H](C(=O)N2CCCCC2)N(C)C(=O)[C@H](CC(C)C)NC(=O)[C@H](Cc2ccccc2)N(C)C(=O)[C@H](C)NC(=O)[C@H](Cc2cccc(I)c2)NC(=O)CN(C)C(=O)[C@H](Cc2ccc(C)cc2)N(C)C(=O)CN(C)C(=O)CN(C)C1=O", "note": "[Compound 619] ([NMeL]I[Sar][Sar][NMePhe(4-Me)][Sar][Phe(3-I)]A[NMeF]L[NMeD]-Piperidide; lactam N-11)", "IC50": 0.019}, {"smiles": "CC[C@H](C)[C@@H]1NC(=O)[C@H](C)N(C)C(=O)C[C@@H](C)NC(=O)[C@H](C2CCCC2)N(C)C(=O)C2(CCCC2)NC(=O)[C@@H]2CCCN2C(=O)[C@H](CCc2ccc(C(F)(F)F)c(Cl)c2)NC(=O)[C@@H](C)N(C)C(=O)[C@H](CC(C)C)N(C)C(=O)CN(C)C(=O)CN(C)C1=O", "note": "[Compound 621] (cyclo([Ac5c][NMeGly(cPent)][d(β3hA)][NMeA]I[Sar][Sar][NMeL][dNMeA][hPhe(3-Cl-4-CF3)]P))", "IC50": 0.059}, {"smiles": "CC[C@H](C)[C@@H]1NC(=O)[C@H](CC(C)C)N(C)C(=O)C[C@@H](C(=O)N2CCCCC2)N(C)C(=O)[C@H](C2CCCCC2)N(C)C(=O)C2(CCCC2)NC(=O)[C@@H]2CCCN2C(=O)[C@H](CCc2ccc(C(F)(F)F)c(Cl)c2)NC(=O)CN(C)C(=O)[C@H](COC)N(C)C(=O)CN(C)C(=O)CN(C)C1=O", "note": "[Compound 623] ([NMeL]I[Sar][Sar][NMeS](Me)[Sar][hPhe(3-Cl-4-CF3)]P[Ac5c][NMeChg][NMeD]-Piperidide; lactam N-11)", "IC50": 0.0018}]}]}
